Reference: US7611630B2, “Method and device for evaluation of pharmaceutical compositions” (Bend Research, Inc., priority 2004, dated 2009)
Converted amounts (≈) assume the structure as drawn. Like-named read-outs stand apart in the source and are kept apart here.

Columns and labels:
[1] = membrane-permeation test, plasma-treated (hydrophilic feed side) membrane, PBS feed, decanol permeate; format: in vitro ADME
Description: A cold plasma was used to treat the feed side of a microporous membrane as follows. An Accurel® PP 1E microporous polypropylene membrane was obtained from Membrana GmbH (Wuppertal, Germany). This membrane has a nominal pore size of 0.1 μm, a thickness of about 92 μm, and a porosity of about 70%. The contact angle of a drop of water placed on the untreated membrane is greater than about 110°.
The membrane was rinsed five times in fresh isopropyl alcohol at room temperature for about 24 hours, for a total rinsing time of about 120 hours, and then allowed to air dry. Prior to treatment, the membrane was rinsed in methanol in a sonicating bath for 1 minute at ambient temperature, and then allowed to air dry at ambient temperature.
A sample of the membrane measuring about 10 cm by about 23 cm was placed into a glass-walled plasma chamber having an inside diameter of about 3 inches (7.5 cm). The membrane was positioned such that the permeate side of the membrane was against the glass wall of the plasma chamber. The atmosphere of the plasma chamber was saturated with water vapor at a pressure of 550 mtorr by placing a shallow tray of water into the chamber prior to reducing the pressure using a vacuum pump.
After achieving a constant pressure in the plasma chamber (about 3 to 5 minutes), the plasma was generated using radio frequency (RF) power inductively coupled into the chamber via annular electrodes. The power on the RF generator was set at 50 watts. The membrane was exposed to the plasma for 45 seconds, after which the power was turned off and the pressure in the chamber increased to ambient using air. The contact angle of a drop of water placed on the surface of the plasma-treated membrane was about 40°. The contact angle of a drop of water placed on the permeate side of the same membrane was greater than about 110°.
The crystalline form of the cholesteryl ester transfer protein (CETP) inhibitor [2R,4S]4-[(3,5-bis-trifluoromethyl-benzyl)-methoxycarbonyl-amino]-2-ethyl-6-trifluoromethyl-3,4-dihydro-2H-quinoline-1-carboxylic acid ethyl ester, also known as torcetrapib (“Drug 1”) was evaluated in a membrane-permeation test. An apparatus similar to the one shown schematically in FIG. 3 was assembled as follows. A permeate reservoir was formed by gluing a sample of the plasma-treated membrane described above to a glass tube having an inside diameter of about 1 inch (2.54 cm) using an epoxy-based glue (LOCTITE® E-30CL HYSOL® from Henkel Loctite Corp, Rocky Hill, Conn.). The feed-side of the membrane was oriented so that it was on the outside of the permeate reservoir, while the permeate-side of the membrane was oriented so that it was on the inside of the reservoir. The glue was allowed to set by placing the permeate reservoir in an oven at 50° C. and 25% relative humidity (RH) overnight. The contact angle of a drop of water on the feed side of the membrane after assembling the permeate reservoir was about 50°. The effective membrane area of the permeate reservoir was about 4.9 cm^2.
[…] […] This is well in excess of the solubility of Drug 1 in water, estimated to be less than about 0.04 μg/mL. The feed solution was mixed on a vortex mixer for about 1 minute.
The apparatus was assembled by first filling the permeate reservoir with the permeate solution. The permeate reservoir, with attached membrane, was placed within a glass feed reservoir about 3.3 cm in diameter such that the membrane was held about 1 cm above the bottom of the feed reservoir, and the membrane was wetted by the permeate solution. The feed reservoir was equipped with a magnetic stir bar and the reservoir was placed on a stir plate and adjusted to a stir rate of 600 rpm. Care was taken to ensure no air bubbles were trapped beneath the feed side of the membrane. Time 0 was taken as the time the permeate reservoir was placed within the feed solution reservoir such that the feed solution contacted the membrane surface. […]

[2] = in vivo oral dosing of OPC, plasma concentration; details: dog, beagle dogs, Fed
Description: The compositions tested in vitro in Examples 3-6 were tested in vivo to determine whether the in vitro results correlate with the in vivo results. For Examples 7 and 8, the composition was the same as that used in Example 3 (25% Drug 1:HPMCAS-M dispersion) dosed in the fasted state, and fed state, respectively. For Examples 9 and 10, the composition was the same as that used in Example 4 (crystalline Drug 1) dosed in the fasted state and fed state, respectively.
The compositions were orally dosed to beagle dogs in the form of an oral powder for constitution (OPC) by suspending the composition in about 15 mL of a solution of 3 wt % polyethylene glycol (PEG) with a molecular weight of 3,350 daltons, 0.5 wt % methylcellulose, and 0.15 wt % Polysorbate 80 in sterile water. In each case a sufficient amount of the pharmaceutical composition was used such that the OPC contained 90 mgA of Drug 1. The thus-formed OPCs were then dosed to dogs in either the fed state or fasted state (fasted overnight). Blood was collected from the jugular vein of the dogs before dosing and at various time points after dosing. To 100 μL of each plasma sample, 5 mL of methyl-tert-butyl ether (MTBE) and 1 mL of 500 mM sodium carbonate buffer (pH 9) were added; the sample was vortexed for 1 minute and then centrifuged for 5 minutes. The aqueous portion of the sample was frozen in a dry-ice/acetone bath, and the MTBE layer was decanted and evaporated in a vortex evaporator. Dried samples were reconstituted in 100 μL of mobile phase (33% acetonitrile and 67% of 0.1% formic acid in water). Analysis was carried out by HPLC.
The results of these tests are shown in Table 7, where Cmax,24 is the maximum concentration in the blood plasma during the first 24 hours, Tmax is the time to achieve the maximum concentration in the blood plasma and AUC0-24 is the concentration in the blood plasma area under the curve in the first 24 hours.

[3] = partition coefficient between organic fluid and water, from solubility ratio
Text: [formula] where m is the rate at which drug is transported across the membrane (g/sec), Vp is the volume of the permeate solution (cm^3), [D]p is the concentration of drug in the permeate solution (g/cm^3), t is the time (sec), am is the membrane area (cm^2), Pov is the overall permeability coefficient (cm/sec), [Ddissolved]f is the concentration of dissolved drug in the feed solution (g/cm^3), and kp,mem is the partition coefficient of drug between the organic fluid and water, which is defined as the ratio of (1) the concentration of drug in the organic fluid, and (2) the concentration of dissolved neutral drug in the aqueous feed solution when the two solutions are at equilibrium. The partition coefficient can be estimated from the ratio of (1) the solubility of drug in the organic fluid and (2) the solubility of the dissolved drug in the aqueous feed solution.
The organic fluid consisted of 4 mL of decanol, which was added to the permeate reservoir. […] An overhead stirrer was used to stir the decanol permeate solution at 100 rpm.
The organic fluid used in these tests consisted of 5 mL of 20 wt % decanol in decane.

[4] = membrane-permeation test with un-treated (hydrophobic) microporous membrane; format: in vitro ADME
Description: A series of tests were performed using the procedure outlined in Example 1 except that an un-treated ACCUREL® PP 1E microporous polypropylene membrane was utilized in the test apparatus. The contact angle of a drop of water on the feed side of the membrane was greater than about 100°, and thus was hydrophobic. The flux of Drug 1 across the membrane was determined using the procedures outlined in Example 1 as a function of the amount of Drug 1 added to the feed solution. […] Without wishing to be bound by any particular theory or mechanism of action, it is believed that without the hydrophilic surface, particles of crystalline drug contacted the permeate solution (decanol) directly and dissolved into the decanol permeate solution, resulting in high maximum fluxes of Drug 1 across the membrane.

[5] = not told, 120 μg/mL
[6] = organic solvent or mixture, solubility in organic fluid
[7] = water, aqueous solubility (solubility in water)

SMILES: CCOC(=O)N1c2ccc(C(F)(F)F)cc2[C@@H](N(Cc2cc(C(F)(F)F)cc(C(F)(F)F)c2)C(=O)OC)C[C@H]1CC [Drug 1, [2R,4S]4-[(3,5-bis-trifluoromethyl-benzyl)-methoxycarbonyl-amino]-2-ethyl-6-trifluoromethyl-3,4-dihydro-2H-quinoline-1-carboxylic acid ethyl ester]
- Maximum Flux of Drug 1 ([1]; 89 μg/mL added to PBS feed, 80 to 160 minutes): 0.025 μg/cm^2-min
- Maximum Flux of Drug 1 ([1]; 1000 μg/mL added to PBS feed, 90 to 210 minutes): 0.028 μg/cm^2-min
- slope of permeate concentration versus time (least-squares fit) ([1]; 90 to 210 minutes, 1000 μg/mL added to PBS feed): 0.035 μg/mL-min
- Drug 1 Concentration in Permeate ([1]; time 0 min, 89 μg/mL added to PBS feed): 0.0 µg/mL
- Drug 1 Concentration in Permeate ([1]; time 0 min, 1000 μg/mL added to PBS feed, 37° C., average of duplicate tests): 0.0 µg/mL
- Drug 1 Concentration in Permeate ([1]; time 20 min, 89 μg/mL added to PBS feed): 0.0 µg/mL
- Drug 1 Concentration in Permeate ([1]; time 30 min, 1000 μg/mL added to PBS feed): 0.0 µg/mL
- Drug 1 Concentration in Permeate ([1]; time 40 min, 89 μg/mL added to PBS feed): 0.0 µg/mL
- Drug 1 Concentration in Permeate ([1]; time 60 min, 89 μg/mL added to PBS feed): 0.0 µg/mL
- Drug 1 Concentration in Permeate ([1]; time 60 min, 1000 μg/mL added to PBS feed): 0.0 µg/mL
- Drug 1 Concentration in Permeate ([1]; time 80 min, 89 μg/mL added to PBS feed): 1.7 µg/mL
- Drug 1 Concentration in Permeate ([1]; time 90 min, 1000 μg/mL added to PBS feed): 3.3 µg/mL
- Drug 1 Concentration in Permeate ([1]; time 100 min, 89 μg/mL added to PBS feed): 2.2 µg/mL
- Drug 1 Concentration in Permeate ([1]; time 120 min, 89 μg/mL added to PBS feed): 3.0 µg/mL
- Drug 1 Concentration in Permeate ([1]; time 120 min, 1000 μg/mL added to PBS feed): 4.5 µg/mL
- Drug 1 Concentration in Permeate ([1]; time 140 min, 89 μg/mL added to PBS feed): 3.7 µg/mL
- Drug 1 Concentration in Permeate ([1]; time 150 min, 1000 μg/mL added to PBS feed): 6.9 µg/mL
- Drug 1 Concentration in Permeate ([1]; time 160 min, 89 μg/mL added to PBS feed): 4.0 µg/mL
- Drug 1 Concentration in Permeate ([1]; time 210 min, 1000 μg/mL added to PBS feed): 7.4 µg/mL
- Drug 1 Concentration in Permeate ([1]; time 240 min, 1000 μg/mL added to PBS feed): 9.2 µg/mL
- Drug 1 Concentration in Permeate ([1]; time 270 min, 1000 μg/mL added to PBS feed): 11.8 µg/mL
- Drug 1 Concentration in Permeate ([1]; time 300 min, 1000 μg/mL added to PBS feed): 12.2 µg/mL
- Drug 1 Concentration in Permeate ([1]; time 330 min, 1000 μg/mL added to PBS feed): 14.9 µg/mL
- Drug 1 Concentration in Permeate ([1]; time 360 min, 1000 μg/mL added to PBS feed): 13.9 µg/mL
- Drug 1 Concentration in Permeate ([1]; time 390 min, 1000 μg/mL added to PBS feed): 16.9 µg/mL
- Drug 1 Concentration in Permeate ([1]; time 420 min, 1000 μg/mL added to PBS feed): 21.4 µg/mL
- Drug 1 Concentration in Permeate ([1]; time 450 min, 1000 μg/mL added to PBS feed): 21.5 µg/mL
- Tmax ([2]; oral OPC 90 mgA Drug 1): 2.3 ± 1.9 h
- AUC(0-t) ([2]; oral OPC 90 mgA Drug 1, read-out: AUC0-24): 928 ± 642 µg·h/mL
- Cmax ([2]; oral OPC 90 mgA Drug 1, read-out: Cmax,24): 191 ± 55 µg/mL
- partition coefficient between the organic fluid and water [3]: greater than 650,000
- partition coefficient of the drug between the organic fluid and PBS [3]: greater than 650,000
- Maximum Flux of Drug ([4]; 25 μg/mL Drug 1 added to the feed): 0.75 μg/cm^2-min
- Maximum Flux of Drug ([4]; 50 μg/mL Drug 1 added to the feed): 1.5 μg/cm^2-min
- Maximum Flux of Drug ([4]; 80 μg/mL Drug 1 added to the feed): 4.0 μg/cm^2-min
- Maximum Flux of Drug ([4]; 200 μg/mL Drug 1 added to the feed): 7.1 μg/cm^2-min
- Maximum Flux of Drug ([4]; 400 μg/mL Drug 1 added to the feed): 12.6 μg/cm^2-min
- Maximum Flux of Drug ([4]; 700 μg/mL Drug 1 added to the feed): 26 μg/cm^2-min
- Maximum Flux of Drug ([4]; 1000 μg/mL Drug 1 added to the feed): 32 μg/cm^2-min
- Maximum Flux of Drug 1 [5]: 0.012 μg/cm^2-min
- maximum flux in solution modeling the fed state relative to MFD solution [5]: 7,6 fold
- solubility (physchem; aqueous buffer, aqueous solubility in PBS): < 4e-05 mg/mL
- solubility (physchem; organic solvent or mixture, solubility in decanol): > 25 mg/mL
- solubility (physchem; [6]): ~25 mg/mL (≈ 41.6 mM)
- solubility (physchem; [7]): < 4e-05 mg/mL

SMILES: O=C(N[C@@H](Cc1ccccc1)[C@@H](O)C(=O)N1C[C@@H](O)[C@@H](O)C1)c1cc2cc(Cl)ccc2[nH]1 [Drug 2, 5-chloro-1H-indole-2-carboxylic acid [(1S)-benzyl-(2R)-hydroxy-3-((3R,4S)-dihydroxy-pyrrolidin-1-yl-)-3-oxypropyl]amide]
- partition coefficient between the organic fluid and water [3]: about 12

SMILES: CC[C@@H]1C[C@H](N(Cc2cc(C(F)(F)F)cc(C(F)(F)F)c2)C(C)=O)c2cc(C(F)(F)F)ccc2N1C(=O)OC(C)C [Drug 3, [2R,4S]4-[acetyl-(3,5-bis-trifluoromethyl-benzyl)-amino]-2-ethyl-6-trifluoromethyl-3,4-dihydro-2H-quinoline-1-carboxylic acid isopropyl ester]
- partition coefficient between the organic fluid and water ([3]; 20 wt % decanol in decane / water): greater than 250,000
- Maximum Flux of Drug 3 [5]: 0.06 μg/cm^2-min
- solubility (physchem; [6]): > 25 mg/mL
- solubility (physchem; [7]): < 0.0001 mg/mL
